The test system of one test is S. aureus RN450. The test can be described thus: In Vitro Anti-Bacterial Activity Assay (MIC), gram positive. In kind it is cell-based. The note with it: Staphylococcus aureus, RN450, 18 h.
In another test the test system is E. coli mL308 225. The experiment in a line: In Vitro Anti-Bacterial Activity Assay (MIC), gram negative. In kind it is cell-based. The note with it: Escherichia coli, ML308225, 18 h.
[1] abbreviates: MIC class, Table 3, read-out: Antibiotic Activity Gram +.
Where [2] appears, read: MIC class, Table 3, read-out: Antibiotic Activity Gram −.
Setting [3] is: gram positive bacteria, read-out: Antibiotic Activity Gram + (MIC).
The mark [4] stands for this setting: gram negative bacteria, read-out: Antibiotic Activity Gram − (MIC).
Where [5] appears, read: MIC class, Table 3 (Continued), read-out: Gram+ activity.
The mark [6] stands for this setting: MIC class, Table 3 (Continued), read-out: Gram− activity.

Structures are written as SMILES. Where two headings read alike, the source gives them in different places.

On to `CN(C)[C@@H]1C(O)=C(C(N)=O)C(=O)[C@@]2(O)C(O)=C3C(=O)c4c(O)ccc(C#Cc5cccc(O)c5)c4C[C@H]3C[C@@H]12` [BI], for which the MIC in the test on S. aureus RN450 (setting [1]) was below 4 µg/mL; in the test on E. coli mL308 225 (setting [2]), above 4 µg/mL.

For the molecule `COc1cccc(C#Cc2cc(N(C)C)c3c(c2O)C(=O)C2=C(O)[C@]4(O)C(=O)C(C(N)=O)=C(O)[C@@H](N(C)C)[C@@H]4C[C@@H]2C3)c1`, the MIC in the test with S. aureus RN450 (setting [3]) and with E. coli mL308 225 (setting [4]) was below 4 µg/mL in each case.

As for `CCN(CC)c1cc(CN2CCC(F)CC2)c(O)c2c1C[C@H]1C[C@H]3[C@H](N(C)C)C(O)=C(C(N)=O)C(=O)[C@@]3(O)C(O)=C1C2=O`, the MIC in the test with S. aureus RN450 (setting [3]) and with E. coli mL308 225 (setting [4]) was below 4 µg/mL in each case.

In the case of `CN(C)/C=N/c1ccc(O)c2c1C[C@H]1C[C@H]3[C@@H](N(C)C)C(O)=C(C(N)=O)C(=O)[C@@]3(O)C(O)=C1C2=O` [QC], the MIC in the test on S. aureus RN450 (setting [1]) and in the test with E. coli mL308 225 (setting [2]) was below 4 µg/mL throughout.

For `CN(C)c1cc(NCc2ccc([N+](=O)[O-])o2)c(O)c2c1C[C@H]1C[C@H]3[C@H](N(C)C)C(O)=C(C(N)=O)C(=O)[C@@]3(O)C(O)=C1C2=O`, the results for the MIC in the test with S. aureus RN450 (setting [3]) and in the test on E. coli mL308 225 (setting [4]) were below 4 µg/mL and above 4 µg/mL, respectively.

For `C[C@H]1c2c(N)cc(I)c(O)c2C(=O)C2=C(O)[C@]3(O)C(=O)C(C(N)=O)=C(O)[C@@H](N(C)C)[C@@H]3[C@@H](O)[C@@H]21`, the MIC in the test on S. aureus RN450 (setting [3]) and with E. coli mL308 225 (setting [4]) was above 4 µg/mL in each case.

`CN(C)c1cc(CNC(=O)C(Cc2ccccc2)N(C)C)c(O)c2c1C[C@H]1C[C@H]3[C@H](N(C)C)C(O)=C(C(N)=O)C(=O)[C@@]3(O)C(O)=C1C2=O` (stereo partly drawn): the MIC in the test with S. aureus RN450 (setting [3]) is below 4 µg/mL; in the test with E. coli mL308 225 (setting [4]), above 4 µg/mL.

In the case of `Cc1ccc(CCc2ccc(O)c3c2C[C@H]2C[C@H]4[C@H](N(C)C)C(O)=C(C(N)=O)C(=O)[C@@]4(O)C(O)=C2C3=O)cc1`, the MIC with S. aureus RN450 (setting [5]) and in the test on E. coli mL308 225 (setting [6]) was below 4 µg/mL throughout.

Regarding `CN(C)[C@@H]1C(O)=C(C(N)=O)C(=O)[C@@]2(O)C(O)=C3C(=O)c4c(O)ccc(CCC(=O)N5CCOCC5)c4C[C@H]3C[C@@H]12`, the MIC with S. aureus RN450 (setting [3]) is below 4 µg/mL; in the test with E. coli mL308 225 (setting [4]) it was above 4 µg/mL.

As for `CN(C)[C@@H]1C(O)=C(C(N)=O)C(=O)[C@@]2(O)C(O)=C3C(=O)c4c(O)ccc(-c5cnccn5)c4C[C@H]3C[C@@H]12`, the MIC in the test on S. aureus RN450 (setting [3]) and with E. coli mL308 225 (setting [4]) was below 4 µg/mL each time.

Consider `CN1CCC(Nc2ccc3c(c2O)C(=O)C2=C(O)[C@]4(O)C(=O)C(C(N)=O)=C(O)[C@@H](N(C)C)[C@@H]4C[C@@H]2C3)CC1`, for which the MIC in the test with S. aureus RN450 (setting [3]) was below 4 µg/mL; with E. coli mL308 225 (setting [4]) it was above 4 µg/mL.

As to `CN(C)[C@@H]1C(O)=C(C(N)=O)C(=O)[C@@]2(O)C(O)=C3C(=O)c4c(O)ccc(C#Cc5ccccc5F)c4C[C@H]3C[C@@H]12`, the MIC with S. aureus RN450 (setting [5]) and with E. coli mL308 225 (setting [6]) was below 4 µg/mL each time.

Take `CN(C)[C@H]1C(O)=C(C(N)=O)C(=O)[C@@]2(O)C(O)=C3C(=O)c4c(O)ccc(-c5ncccn5)c4C[C@H]3C[C@@H]12` [PX]: the MIC was below 4 µg/mL with S. aureus RN450 (setting [1]) and above 4 µg/mL in the test with E. coli mL308 225 (setting [2]).

With `CN(C)c1cc(C#CCc2ccccc2)c(O)c2c1C[C@H]1C[C@H]3[C@H](N(C)C)C(O)=C(C(N)=O)C(=O)[C@@]3(O)C(O)=C1C2=O` [DQ], the MIC with S. aureus RN450 (setting [1]) is below 4 µg/mL; with E. coli mL308 225 (setting [2]), above 4 µg/mL.

On to `CN(C)[C@@H]1C(O)=C(C(N)=O)C(=O)[C@@]2(O)C(O)=C3C(=O)c4c(O)ccc(C#CCc5ccccc5)c4C[C@H]3C[C@@H]12`, for which the MIC in the test with S. aureus RN450 (setting [5]) and with E. coli mL308 225 (setting [6]) was below 4 µg/mL throughout.

For `CCc1cc(NCC(C)C)c(O)c2c1C[C@H]1C[C@H]3[C@H](N(C)C)C(O)=C(C(N)=O)C(=O)[C@@]3(O)C(O)=C1C2=O`, the MIC with S. aureus RN450 (setting [3]) and with E. coli mL308 225 (setting [4]) was below 4 µg/mL in each case.

In the case of `CN(C)[C@@H]1C(O)=C(C(N)=O)C(=O)[C@@]2(O)C(O)=C3C(=O)c4c(O)ccc(C5C=CCC5)c4C[C@H]3C[C@@H]12` (stereo partly drawn), the MIC with S. aureus RN450 (setting [5]) and in the test with E. coli mL308 225 (setting [6]) was below 4 µg/mL each time.

In the case of `COc1ccc(-c2ccc(O)c3c2C[C@H]2C[C@H]4[C@H](N(C)C)C(O)=C(C(N)=O)C(=O)[C@@]4(O)C(O)=C2C3=O)cc1` [drawing 3310], the MIC in the test on S. aureus RN450 (setting [5]) and in the test with E. coli mL308 225 (setting [6]) was below 4 µg/mL each time.

Consider `CCCCOc1cccc2c1C(=O)C1=C(O)[C@]3(O)C(=O)C(C(N)=O)=C(O)[C@@H](N(C)C)[C@@H]3[C@@H](O)[C@@H]1[C@H]2C`, for which the MIC in the test with S. aureus RN450 (setting [3]) and in the test with E. coli mL308 225 (setting [4]) was above 4 µg/mL throughout.

For the molecule `COC(=O)CCC(=O)Nc1ccc(-c2ccc(O)c3c2C[C@H]2C[C@H]4[C@H](N(C)C)C(O)=C(C(N)=O)C(=O)[C@@]4(O)C(O)=C2C3=O)cc1`, the MIC was below 4 µg/mL with S. aureus RN450 (setting [3]) and above 4 µg/mL with E. coli mL308 225 (setting [4]).

Take `CN(C)[C@@H]1C(O)=C(C(N)=O)C(=O)[C@@]2(O)C(O)=C3C(=O)c4c(O)ccc(-c5cncc(CO)c5)c4C[C@H]3C[C@@H]12`: the values for the MIC in the test on S. aureus RN450 (setting [3]) and in the test on E. coli mL308 225 (setting [4]) were below 4 µg/mL and above 4 µg/mL, respectively.

The values above are taken from US20150141381A1, “TETRACYCLINE COMPOUNDS HAVING TARGET THERAPEUTIC ACTIVITIES” (Paratek Pharmaceuticals, Inc., priority 2001, published 2015).
